Assay results: article PMC10385442, “Galactoside-Based Molecule Enhanced Antimicrobial Activity through Acyl Moiety Incorporation: Synthesis and In Silico Exploration for Therapeutic Target” (Pharmaceuticals, 2023)
In brackets after ≈: the same amount, converted by molar mass. Like-named read-outs stand apart in the source and are kept apart here.

Key:
[1] = system: P. aeruginosa (G − ve) (ATCC 9027); test: Disc diffusion antibacterial susceptibility; assay type: cell-based; settings: for Diameter of Inhibition Zones: P. aeruginosa (ATCC 9027), triplicate, NI = No inhibition; for antibacterial activity category: P. aeruginosa, category by zone
Text: (§1) The methodology employed to determine the antibacterial properties of the synthesized compounds (each compound dissolved in dimethyl sulfoxide 7% DMSO) involved the use of the disc diffusion approach. This was done following a previously described method with slight modifications. First, an inoculum was obtained from a bacterial colony and diluted to a concentration of 0.5 McFarland standard in sterile saltwater containing 0.9% NaCl. The suspension was then transferred to a sterile tube and allowed to settle for 5 min, after which the top homogeneous solution was transferred to another sterile tube. The concentration of the solution was adjusted to a 0.5 McFarland turbidity standard to obtain an inoculum of approximately 10^6 CFU/mL.

[2] = system: S. aureus (G + ve) (BTCC 19); test: Disc diffusion antibacterial susceptibility; assay type: cell-based; settings: for Diameter of Inhibition Zones: S. aureus (BTCC 19), triplicate, NI = No inhibition
Text: as §1

[3] = system: S. typhi (G − ve) (AE 14612); test: Disc diffusion antibacterial susceptibility; assay type: cell-based, Salmonella typhi; settings: S. typhi (AE 14612), triplicate, NI = No inhibition
Text: as §1

[4] = system: Aspergillus niger (ATCC 16404); test: Antifungal poisoned food method, mycelial growth; assay type: cell-based; settings: NI: no inhibition
Method: (§2) The food poisoning method with potato dextrose agar (PDA) as the culture medium was used to test the antifungal action. Twenty milliliters of 45 °C sterilized, melted potato dextrose agar medium (PDA) was placed into sterile 70-mm glass Petri plates. The “poisoned food” method was used to determine how the synthesized MDGP (1) derivatives affected the growth of the fungal mycelium.

[5] = system: Aspergillus flavus (ATCC 204304); test: Antifungal poisoned food method, mycelial growth; assay type: cell-based; settings: NI: no inhibition
Method: as §2

[6] = system: B. subtilis (G + ve) (ATCC 6633); test: Disc diffusion antibacterial susceptibility; assay type: cell-based, Bacillus subtilis; settings: B. subtilis (ATCC 6633), triplicate, NI = No inhibition
Text: as §1

[7] = system: E. coli (G − ve) (ATCC 8739); test: Disc diffusion antibacterial susceptibility; assay type: cell-based, Escherichia coli; settings: E. coli (ATCC 8739), triplicate, NI = No inhibition
Text: as §1

B. subtilis (ATCC 6633) = test: MIC and MBC by broth dilution; assay type: cell-based, Bacillus subtilis
Method: (§3) To determine the minimum inhibitory concentration (MIC) of the synthesized compounds against the tested bacterial strains, a dilution method was employed. The objective was to establish the lowest concentration of the compound at which approximately 90% of bacterial growth was inhibited. To this end, a bacterial suspension of 300 μL at a concentration of 0.5 McFarland standard was seeded into individual tubes of 9 mL nutrient broth, with each tube receiving 1 mL of different concentrations of the synthesized compound at twofold serial dilutions and 7% DMSO, which served as the negative control. The tubes were then kept at 37 °C for a whole night. The MIC and MBC values were determined by using the naked eye to compare the turbidity of the tube to that of a reference medium with a 0.5 McFarland value.

E. coli (ATCC 8739) = test: MIC and MBC by broth dilution; assay type: cell-based, Escherichia coli; settings: for MBC: eradicates 99.9% of inoculum
Method: as §3

[8] = system: P. aeruginosa (ATCC 9027); test: MIC and MBC by broth dilution; assay type: cell-based
Method: as §3

B. cereus (BTCC 19) = test: MIC and MBC by broth dilution; assay type: cell-based; settings: for MBC: eradicates 99.9% of inoculum
Method: as §3

S. typhi (AE 14612) = test: MIC and MBC by broth dilution; assay type: cell-based, Salmonella typhi
Method: as §3

[9] = Bacillus subtilis, ATCC6633, eradicates 99.9% of inoculum, read-out: MBC
[10] = Bacillus subtilis, ATCC6633, read-out: MIC
[11] = Escherichia coli, ATCC8739, E. coli, read-out: MBC
[12] = Escherichia coli, ATCC8739, E. coli, read-out: MIC
[13] = Pseudomonas aeruginosa, ATCC9027, eradicates 99.9% of inoculum, read-out: MBC
[14] = Pseudomonas aeruginosa, ATCC9027, read-out: MIC
[15] = S. typhi, eradicates 99.9% of inoculum

CO[C@@H]1O[C@H](COC(=O)c2ccccc2Br)[C@H](O)[C@H](O)[C@H]1O [Compound 2, Methyl 6-O-(2-bromobenzoyl)-β-D-galactopyranoside]
Diameter of Inhibition Zones [1]: * 15.00 ± 0.1 mm | antibacterial activity category [1]: high activity (high activity at 15 mm or more) | Diameter of Inhibition Zones [2]: 10.50 ± 0.2 mm | Diameter of Inhibition Zones [3]: 11.25 ± 0.2 mm | % Inhibition of Fungal Mycelial Growth [4]: * 72.88 ± 1.0% | % Inhibition of Fungal Mycelial Growth [5]: * 85.66 ± 0.9%

CCCCCCCCCCCCCC(=O)O[C@H]1[C@@H](OC(=O)CCCCCCCCCCCCC)[C@@H](COC(=O)c2ccccc2Br)O[C@@H](OC)[C@@H]1OC(=O)CCCCCCCCCCCCC [Compound 4, Methyl 6-O-(2-bromobenzoyl)-2,3,4-tri-O-myristoyl-β-D-galactopyranoside]
% Inhibition of Fungal Mycelial Growth [4]: * 71.19 ± 1.0%

CC[C@H]1OC(=O)[C@H](C)[C@@H](O[C@H]2C[C@@](C)(OC)[C@@H](O)[C@H](C)O2)[C@H](C)[C@@H](O[C@@H]2O[C@H](C)C[C@H](N(C)C)[C@H]2O)[C@](C)(O)C[C@@H](C)CN(C)[C@H](C)[C@@H](O)[C@]1(C)O [Azithromycin, reference compound]
Diameter of Inhibition Zones [6]: ** 18.25 ± 0.2 mm | Diameter of Inhibition Zones [1]: ** 18.5 ± 0.3 mm | Diameter of Inhibition Zones [2]: ** 17.50 ± 0.2 mm | Diameter of Inhibition Zones [7]: ** 17.25 ± 0.2 mm | Diameter of Inhibition Zones [3]: ** 18.0 ± 0.1 mm

CCCCCCCCCCCC(=O)O[C@H]1[C@@H](OC(=O)CCCCCCCCCCC)[C@@H](COC(=O)c2ccccc2Br)O[C@@H](OC)[C@@H]1OC(=O)CCCCCCCCCCC [Compound 3, Methyl 6-O-(2-bromobenzoyl)-2,3,4-tri-O-lauroyl-β-D-galactopyranoside]
Diameter of Inhibition Zones [6]: * 13.00 ± 0.1 mm | Diameter of Inhibition Zones [1]: 11.25 ± 0.3 mm | Diameter of Inhibition Zones [2]: * 15.50 ± 0.3 mm | antibacterial activity category ([2]; category by zone): high activity (high activity at 15 mm or more) | Diameter of Inhibition Zones [7]: 11.00 ± 0.2 mm | MIC (B. subtilis (ATCC 6633)): 8000 µg/mL (≈ 8.66 mM) | MBC (B. subtilis (ATCC 6633); [9]): 16000 µg/mL (≈ 17.3 mM) | MIC (B. subtilis (ATCC 6633); [10]): 8000 µg/mL (≈ 8.66 mM) | MBC (B. subtilis (ATCC 6633); eradicates 99.9% of inoculum): 16000 µg/mL (≈ 17.3 mM) | MIC (E. coli (ATCC 8739); E. coli): 2000 µg/mL (≈ 2.16 mM) | MBC (E. coli (ATCC 8739); E. coli): 16000 µg/mL (≈ 17.3 mM) | MBC (E. coli (ATCC 8739); [11]): 16000 µg/mL (≈ 17.3 mM) | MIC (E. coli (ATCC 8739); [12]): 2000 µg/mL (≈ 2.16 mM) | MBC [8, 13]: 16000 µg/mL (≈ 17.3 mM) | MIC [8, 14]: 250 µg/mL (≈ 0.271 mM) | MBC ([8]; eradicates 99.9% of inoculum): 16000 µg/mL (≈ 17.3 mM) | MIC (B. cereus (BTCC 19)): 8000 µg/mL (≈ 8.66 mM) | MBC (B. cereus (BTCC 19); Bacillus cereus, read-out: MBC): 8000 µg/mL (≈ 8.66 mM) | MIC (B. cereus (BTCC 19); Bacillus cereus, read-out: MIC): 8000 µg/mL (≈ 8.66 mM) | MBC (B. cereus (BTCC 19)): 8000 µg/mL (≈ 8.66 mM) | MBC (S. typhi (AE 14612); [15]): 8000 µg/mL (≈ 8.66 mM) | MBC (S. typhi (AE 14612); Salmonella enterica, TYPHI): 8000 µg/mL (≈ 8.66 mM) | MIC (S. typhi (AE 14612); Salmonella enterica, TYPHI): 125 µg/mL (≈ 0.135 mM) | Diameter of Inhibition Zones [3]: * 12.25 ± 0.1 mm | % Inhibition of Fungal Mycelial Growth [4]: * 64.83 ± 1.1% | % Inhibition of Fungal Mycelial Growth [5]: * 84.02 ± 1.3%

C[C@@H]1[C@H](O)[C@@H](C)/C=C/C=C/CC/C=C/C=C/C=C/C=C/C(O[C@H]2O[C@H](C)[C@@H](O)[C@H](N)[C@@H]2O)CC2O[C@](O)(CC(O)C(O)CCC(O)CC(O)CC(O)CC(=O)O[C@H]1C)CC(O)C2C(=O)O (stereo partly drawn) [Nystatin, reference compound]
% Inhibition of Fungal Mycelial Growth [4]: ** 66.7 ± 1.1% | % Inhibition of Fungal Mycelial Growth [5]: ** 65.2 ± 1.2%

CO[C@@H]1O[C@H](COC(=O)c2ccccc2Br)[C@H](OC(=O)c2ccc(C(C)(C)C)cc2)[C@H](OC(=O)c2ccc(C(C)(C)C)cc2)[C@H]1OC(=O)c1ccc(C(C)(C)C)cc1 [Compound 7, Methyl 6-O-(2-bromobenzoyl)-2,3,4-tri-O-(4-t-butylbenzoyl)-β-D-galactopyranoside]
Diameter of Inhibition Zones [6]: 7.75 ± 0.1 mm | Diameter of Inhibition Zones [1]: 7.50 ± 0.3 mm | Diameter of Inhibition Zones [7]: 8.50 ± 0.1 mm | Diameter of Inhibition Zones [3]: 9.00 ± 0.3 mm

CO[C@@H]1O[C@H](COC(=O)c2ccccc2Br)[C@H](OC(=O)c2ccc(Cl)cc2)[C@H](OC(=O)c2ccc(Cl)cc2)[C@H]1OC(=O)c1ccc(Cl)cc1 [Compound 6, Methyl 6-O-(2-bromobenzoyl)-2,3,4-tri-O-(4-chlorobenzoyl)-β-D-galactopyranoside]
Diameter of Inhibition Zones [6]: * 12.75 ± 0.1 mm | Diameter of Inhibition Zones [1]: 11.50 ± 0.1 mm | Diameter of Inhibition Zones [2]: 11.50 ± 0.3 mm | Diameter of Inhibition Zones [7]: 11.25 ± 0.2 mm | MIC (B. subtilis (ATCC 6633)): 500 µg/mL (≈ 0.631 mM) | MBC (B. subtilis (ATCC 6633); [9]): 16000 µg/mL (≈ 20.2 mM) | MIC (B. subtilis (ATCC 6633); [10]): 500 µg/mL (≈ 0.631 mM) | MBC (B. subtilis (ATCC 6633); eradicates 99.9% of inoculum): 16000 µg/mL (≈ 20.2 mM) | MIC (E. coli (ATCC 8739); E. coli): 1000 µg/mL (≈ 1.26 mM) | MBC (E. coli (ATCC 8739); E. coli): 8000 µg/mL (≈ 10.1 mM) | MBC (E. coli (ATCC 8739); [11]): 16000 µg/mL (≈ 20.2 mM) | MIC (E. coli (ATCC 8739); [12]): 1000 µg/mL (≈ 1.26 mM) | MIC [8]: 8000 µg/mL (≈ 10.1 mM) | MBC [8, 13]: 16000 µg/mL (≈ 20.2 mM) | MIC [8, 14]: 8000 µg/mL (≈ 10.1 mM) | MBC ([8]; eradicates 99.9% of inoculum): 16000 µg/mL (≈ 20.2 mM) | MIC (B. cereus (BTCC 19)): 2000 µg/mL (≈ 2.52 mM) | MBC (B. cereus (BTCC 19); Bacillus cereus, read-out: MBC): 8000 µg/mL (≈ 10.1 mM) | MIC (B. cereus (BTCC 19); Bacillus cereus, read-out: MIC): 2000 µg/mL (≈ 2.52 mM) | MBC (B. cereus (BTCC 19)): 8000 µg/mL (≈ 10.1 mM) | MIC (S. typhi (AE 14612); S. typhi): 2000 µg/mL (≈ 2.52 mM) | MBC (S. typhi (AE 14612); [15]): 8000 µg/mL (≈ 10.1 mM) | MBC (S. typhi (AE 14612); Salmonella enterica, TYPHI): 8000 µg/mL (≈ 10.1 mM) | MIC (S. typhi (AE 14612); Salmonella enterica, TYPHI): 2000 µg/mL (≈ 2.52 mM) | Diameter of Inhibition Zones [3]: * 13.00 ± 0.3 mm | % Inhibition of Fungal Mycelial Growth [4]: * 78.81 ± 1.0% | % Inhibition of Fungal Mycelial Growth [5]: * 81.97 ± 1.2%

CO[C@@H]1O[C@H](COC(=O)c2ccccc2Br)[C@H](OC(=O)c2cccc(Cl)c2)[C@H](OC(=O)c2cccc(Cl)c2)[C@H]1OC(=O)c1cccc(Cl)c1 [Compound 5, Methyl 6-O-(2-bromobenzoyl)-2,3,4-tri-O-(3-chlorobenzoyl)-β-D-galactopyranoside]
Diameter of Inhibition Zones [1]: * 18.25 ± 0.3 mm | antibacterial activity category [1]: high activity (high activity at 15 mm or more) | % Inhibition of Fungal Mycelial Growth [4]: 48.73 ± 1.1% | % Inhibition of Fungal Mycelial Growth [5]: * 81.97 ± 1.0%
